In US20130324606A1, “Ester Derivatives of Bimatoprost Compositions and Methods” (ALLERGAN, INC., priority 2011, published 2013):

Legend:
[1] = Pharmacokinetic assessment of mouse hair regrowth model; assay type: in vivo; settings: mice, 0.03% dermal daily ~60 uL, all measured time points, LC/MS-MS
Method: Female C57BL/6J mice (n=2) were assayed per time point per treatment group. Treatment groups: (1) vehicle; (2) 0.03% Cmpd IVa; (3) 0.03% Cmpd IIIb; (4) 0.03% Cmpd IVb; (5) 0.03% bimatoprost. Treatment dosing: dermal daily application of ˜60 uL test compound solution. Blood and skin pharmacokinetic time points were obtained at day 1 (1, 4, 8 and 24-hrs post-dose); day 2 (24-hrs post-dose); day 14 (24-hrs post-dose); and day 42 (28 days post day 14 dose). Bioanalysis employed LC/MS-MS.

[2] = In vitro human skin penetration (Franz diffusion chamber); assay type: in vitro ADME; settings: FIGS. 14A-14C, 6, 24, 48 hr
[3] = microAmes mutagenesis screen; assay type: cell-based; settings: with or without metabolic activation
From the text: Cmpds IVa, IIIb, and IVb were subjected to the microAmes screen, as known in the art.

[4] = Formulation and stability studies; assay type: physicochemical; settings: variations of Formulation A, 0.03% active, pH 4, 5, 6 and 7; 25, 40 and 60° C.; zero time and 80-days
Method: Stability over time of compounds disclosed herein was determined in formulation as a function of temperature and pH. Variations of Formulation A described herein were employed wherein the target concentration of active agent was 0.03%, and the pH was varied at pH 4, 5, 6 and 7. Temperatures of 25° C., 40° C. and 60° C. were maintained during the experiment. Samples were evaluated at zero time and 80-days.
Cmpds IVa, IIIb, and IVb for evaluated for stability.
FIGS. 1A-1B, 2A-2B, and 3A-3B depict histograms of relative concentrations of test compounds (arbitrary scale) at zero time or 80-days. FIG. 1A depicts a histogram of the stability profile of Cmpd IVa as a function of pH and temperature. FIG. 1B depicts a histogram of the formation of bimatoprost as a function of pH and temperature after 80-days for Cmpd IVa. FIG. 2A depicts a histogram of the stability profile of Cmpd IVb as a function of pH and temperature. FIG. 2B depicts a histogram of the formation of bimatoprost as a function of pH and temperature after 80-days for Cmpd IVb. FIG. 3A depicts a histogram of the stability profile of Cmpd IIIb as a function of pH and temperature. FIG. 3B depicts a histogram of the formation of bimatoprost as a function of pH and temperature after 80-days for Cmpd IIIb.

[5] = Partitioning in artificial sebum; assay type: physicochemical
Method: Compounds bimatoprost, Cmpd IVa, and Cmpd IIIb were added to aqueous solution (1 mL, 2-20 ug/mL), with and without 1-20 mg artificial sebum. Samples were shaken for 16 hr at 37° C. Samples were then centrifuged (8000 RPM) for 15 min at room temperature, prior to collection of the aqueous solution. Samples were analyzed for concentration of compound without artificial sebum (i.e., Co) and with artificial sebum (i.e., Ci) by mass spectroscopy. Artificial sebum and water partition coefficient (Ksebum) was expressed as the concentration of drug in 1 g of artificial sebum divided by the concentration of drug in 1 g of aqueous solution, and was calculated as Ksebum=(Co−Ci)Waqueous/(Ci×Wsebum) (Eqn. 1), where W represents weight.
Artificial sebum was prepared as follows: 15% (w/w) squalene, 15% spermaceti, 10% coconut oil, 1.5% oleic acid, 5% palmitic acid, 2.4% cholesterol oleate, 10% paraffin wax, 10% olive oil, 25% cottonseed oil, 5% palmitoleic acid, 1.2% cholesterol. The melting point of the semi-liquid was 37° C.

[6] = Dermal tolerability in rats; assay type: in vivo; settings: female rats
Method: Female rats were administered either vehicle or one of Cmpds IVa, IIIb, or IVb daily for 8 days. The administered dose was 3 mg/kg/day, at a concentration of 3 mg/mL. Observed data were body weight, viability, food consumption, and dermal observation (skin reaction grading), as known in the art. The vehicle was Formulation A. See Table 1 above.

[7] = test system: C57Black/6J mice; assay: Piliation (hair regrowth) studies in mice; assay type: in vivo; settings: mouse hair regrowth
Method: C57Black/6J, 7-week old female mice (n=10) were employed in piliation studies. Dorsal hair was shaved (area ˜2 cm×4 cm). Dosing of active agent was once per day (QD) by topical administration for 14 days. Observations were conducted for 42-days to determine onset of new hair growth and day of hair growth completion. Compounds were formulated as either a) 50% propylene glycol, 30% ethanol, 20% water, or b) the formulation of Formulation A described above. The experiments reported for FIGS. 4A-4B, 5A-5B, 6A-6B, 8A-8B, and 9A-9B were conducted using a vehicle with formulation of 50% propylene glycol, 30% ethanol, 20% water. The experiments reported for FIGS. 7A-7B were conducted using a vehicle of Formulation A described above.
For each of FIGS. 4A, 5A, 6A, 7A, 8A and 9A, the histograms depict the day of onset of hair growth. For each of FIGS. 4B, 5B, 6B, 7B, 8B and 9B, the histograms depict the day achieving full hair growth.

[8] = In vitro human skin penetration (Franz diffusion chamber); assay type: in vitro ADME
From the text: Test material: Dermatomed ex vivo human cadaver posterior trunk skin on 1.0 cm^2 Franz diffusion chamber as known in the art. Test size: 3 skin donors (obtained from New York Firefighters Skin Bank), 3 replicates per donor per formulation. Test formulations: 0.03% active agent (Cmpd IVa, Cmpd IIIb, Cmpd IVb) in Formulation A; control formulation: bimatoprost at 0.03% in Formulation A. Dosing regimen: receptor fluid at 2, 4, 24, and 48 hrs; SC/epidermis and dermis at 48 hrs. Sample analysis: LC/MS-MS to detect bimatoprost and Cmpds IVa, IIIb and IVb.

[9] = test system: mouse skin; assay: Pathology assessment of mouse hair regrowth model; assay type: in vivo, mice; settings: histology, 0.03% active, vehicle control still in growth phase
From the text: Histological samples from test subjects employed in the studies described in Example 12 were obtained for pathology assessment.

[10] = dermal 3 mg/kg/day daily for 8 days, Formulation A

CCNC(=O)CCC/C=C\C[C@@H]1[C@@H](/C=C/[C@H](CCc2ccccc2)OC(C)=O)[C@H](O)C[C@@H]1O [Cmpd IVa, 15-acetyl-bimatoprost]
level in the systemic circulation [1]: most undetectable
conversion to bimatoprost in the receptor chamber solution [2]: observed to convert to bimatoprost
mutagenicity in microAmes screen [3]: not mutagenic
stability in formulation [4]: stable in formulation
phase in which the majority of compound remains ([5]; artificial sebum / aqueous solution): remain in the aqueous phase
Ave. Ksebum (artificial sebum and water partition coefficient) ([5]; n = 4, 16 hr at 37° C.): 5.1
change in food consumption and body weight gain (in words) ([6]; 3 mg/kg/day daily for 8 days): no significant change in food consumption or body weight gain
dermal observation: signs of irritation ([6]; 3 mg/kg/day, days 2-4): minimal and transient signs of irritation
Body Weight Gain (g) Mean ± SD [6, 10]: 9.0 ± 3.0 g
Food Consumption (g) Mean ± SD [6, 10]: 21.14 ± 1.08 g
effectiveness of 0.03% compound compared to 0.1% to 0.3% bimatoprost [7]: approximately equally effective
pharmacological efficacy relative to bimatoprost ([7]; vehicle 50% propylene glycol, 30% ethanol, 20% water): efficacy greater than bimatoprost
pharmacological efficacy relative to bimatoprost ([7]; vehicle Formulation A): efficacy greater than bimatoprost
skin penetration (cumulative amount in receptor solution) relative to bimatoprost ([8]; 0.03% in Formulation A, FIG. 13A): significantly greater than for bimatoprost
penetration flux relative to bimatoprost ([8]; 0.03% in Formulation A, FIG. 13B): greater than that for bimatoprost
Percentage Dose Applied, Receptor Chamber Solution, Prodrug ([8]; 0.03% in Formulation A, Franz chamber, dosed compound): 4.3 Percentage Dose Applied
Percentage Dose Applied, Upper ⅓ Dermis, Prodrug ([8]; 0.03% in Formulation A, dermis at 48 hrs, dosed compound): 3.8 Percentage Dose Applied
conversion to bimatoprost in the SC/Epi/Dermis layers ([8]; FIG. 15A): converted to bimatoprost
amount of active agent in the upper third of the dermis relative to bimatoprost ([8]; FIG. 15B): less than observed for bimatoprost
hair cycle phase at day-42 [9]: returned to the resting phase
